One data set addresses T1, 5-HT2c binding site (Rattus norvegicus, UniProt P08909).
T1 construct: ability to displace [^3H]-mesulergine in the rat prefrontal cortex; from tissue; host or cells: rat prefrontal cortex membrane suspension
T1 sequence (P08909 33-460): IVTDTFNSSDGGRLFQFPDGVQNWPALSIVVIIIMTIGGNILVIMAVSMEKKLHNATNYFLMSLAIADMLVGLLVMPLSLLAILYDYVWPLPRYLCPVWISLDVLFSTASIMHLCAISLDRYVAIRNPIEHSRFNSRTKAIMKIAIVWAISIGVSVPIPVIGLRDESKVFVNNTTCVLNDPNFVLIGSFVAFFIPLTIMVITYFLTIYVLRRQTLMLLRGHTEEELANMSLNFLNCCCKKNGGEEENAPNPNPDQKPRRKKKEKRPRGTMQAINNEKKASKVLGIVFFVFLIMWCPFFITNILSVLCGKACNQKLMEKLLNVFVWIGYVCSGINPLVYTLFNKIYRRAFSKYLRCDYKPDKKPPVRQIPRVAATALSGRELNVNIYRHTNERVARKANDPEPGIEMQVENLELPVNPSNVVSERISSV
In words: [3H]-mesulergine binding. As to conditions: test drug 10^−6M; displacement of [3H]-mesulergine (1 nM) in rat prefrontal cortex membranes; 30 nM spiperone present. On the procedure:
[^3H]-mesulergine Binding
The affinity of test drugs for the 5-HT2c binding site can be determined by assessing their ability to displace [^3H]-mesulergine in the rat prefrontal cortex. The method employed was similar to that of Pazos et al, 1984.
The membrane suspension (500 μl) was incubated with [^3H]-mesulergine (1 nM) in Tris hydrochloric acid buffer solution (pH 7.4) containing calcium chloride 4 mM and ascorbic acid 0.1% at 37° C. for 30 minutes. Non-specific binding was measured in the presence of mianserin (1 μM). 30 nM spiperone was used to prevent binding to 5-HT2A sites. Test drugs (10^−6M) were added in a volume of 100 μl. The total assay volume was 1000 μl. Incubation was stopped by rapid filtration using a Brandel cell harvester and radioactivity measured by scintillation counting.
On the technique in general: Displacement assays read how much labelled ligand stays bound in the presence of the test substance.

The results in this text go back to patent publication US20040087798A1, “Novel amide compounds” (priority 2000, published 2004).

As a reminder, the melting point is the temperature, or range, at which the solid turns liquid. A word on the inhibition: it is the share of the control response that was lost under treatment. Low readings indicate a response near the control, high ones a response far below the control.

`O=C(C/C=C/c1ccccc1)Nc1cccc(-n2ccnc2)c1` [Compound (a), (3E)-N-[3-(imidazol-1-yl)phenyl]-4-phenyl-3-butenamide] gave a melting point of 130 to 133 °C. The compound also registered an inhibition at 1 µM on 5-HT2c binding site of 82%.

For `N=C(Nc1cc(F)cc(NC(=O)/C=C/c2ccccc2C(F)(F)F)c1)c1ccccc1` [Example 137, (2E)-N-[3-fluoro-5-(iminobenzylamino)phenyl]-3-(2-trifluoromethylphenyl)-2-propenamide], the melting point was in the range of 103 to 105 °C.

Compound `N=C(Nc1cc(Cl)cc(NC(=O)/C=C/c2ccccc2F)c1)c1ccccc1` [Example 138, (2E)-N-[3-chloro-5-(iminobenzylamino)phenyl]-3-(2-fluorophenyl)-2-propenamide] had a melting point of 186 to 187 °C.

The compound `Cc1ccc(NC(=N)c2ccccc2)cc1NC(=O)/C=C/c1ccccc1C(F)(F)F` [Example 139, (2E)-N-[5 (iminobenzylamino)-2-methylphenyl]-3-(2-trifluoromethylphenyl)-2-propenamide] registered a melting point of 220 to 222 °C.

The compound `COc1ccc(NC(=N)c2ccccc2)cc1NC(=O)/C=C/c1ccccc1C(F)(F)F` [Example 140, (2E)-N-[5-(iminobenzylamino)-2-methoxyphenyl]-3-(2-trifluoromethylphenyl)-2-propenamide] had a melting point of 208 to 210 °C.

The compound `N=C(Nc1ccc(Cl)c(NC(=O)/C=C/c2ccccc2C(F)(F)F)c1)c1ccccc1` [Example 141, (2E)-N-[2-chloro-5-(iminobenzylamino)phenyl]-3-(2-trifluoromethylphenyl)-2-propenamide] returned a melting point of 198 to 199 °C.

Consider `N=C(Nc1cc(Cl)cc(NC(=O)/C=C/c2ccccc2Br)c1)c1ccccc1` [Example 142, (2E)-N-[3-chloro-5-(iminobenzylamino)phenyl]-3-(2-bromophenyl)-2-propenamide], for which the melting point lay within 99 to 101 °C.

`Cc1ccc(NC(=O)/C=C/c2ccccc2C(F)(F)F)cc1NC(=N)c1ccccc1` [Example 143, (2E)-N-[3-(iminobenzylamino)-4-methylphenyl]-3-(2-trifluoromethylphenyl)-2-propenamide] registered a melting point of 112 to 116 °C.

As for `COc1ccc(NC(=O)/C=C/c2ccccc2C(F)(F)F)cc1NC(=N)c1ccccc1` [Example 144, (2E)-N-[3-(iminobenzylamino)-4-methoxyphenyl]-3-(2-trifluoromethylphenyl)-2-propenamide], the melting point fell in the range of 213 to 214 °C.

For `N=C(Nc1cc(NC(=O)/C=C/c2ccccc2C(F)(F)F)ccc1Cl)c1ccccc1` [Example 145, (2E)-N-[4-chloro-3-(iminobenzylamino)phenyl]-3-(2-trifluoromethylphenyl)-2-propenamide], the melting point is 188 to 189 °C.

For the compound `CS(=O)(=O)Nc1cc(NC(=N)c2ccccc2)cc(NC(=O)/C=C/c2ccccc2C(F)(F)F)c1` [Example 146, (2E)-N-[3 (iminobenzylamino)-5-(methylsulfonylamino)phenyl]-3-(2-trifluoromethylphenyl)-2-propenamide], the melting point lay in the range of 150 to 155 °C.

As for `CS(=O)(=O)Nc1ccc(C(=N)Nc2cc(Cl)cc(NC(=O)/C=C/c3ccccc3Cl)c2)cc1` [Example 147, (2E)-N-[3-chloro-5-[imino(4-methylsulfonylaminobenzyl)amino]phenyl]-3-(2-chlorophenyl)-2-propenamide], the melting point is 158 to 160 °C.

Take `N=C(Nc1cc(Cl)cc(NC(=O)/C=C/c2ccccc2C(F)(F)F)c1)c1ccccc1F` [Example 148, (2E)-N-[3-chloro-5-[imino(2-fluorobenzyl)amino]phenyl]-3-(2-trifluoromethylphenyl)-2-propenamide]: the melting point lay in the range of 209 to 210 °C.

In turn, `CC(=O)Nc1ccc(C(=N)Nc2cc(NC(=O)/C=C/c3ccccc3C(F)(F)F)c(F)cc2F)cc1` [Example 152, (2E)-N-[2,4-difluoro-5-[imino(4-acetylaminobenzyl)amino]phenyl]-3-(2-trifluoromethylphenyl)-2-propenamide] showed a melting point of 180 to 185 °C.

Regarding `N=C(Nc1cc(Cl)c(Cl)c(NC(=O)/C=C/c2ccccc2C(F)(F)F)c1)c1ccccc1` [Example 154, (2E)-N-[2,3-dichloro-5-(iminobenzylamino)phenyl]-3-(2-trifluoromethylphenyl)-2-propenamide], the melting point lay within 213 to 214 °C.

`O=C(C=Cc1ccccc1Cl)Nc1cc(Cl)cc(Nc2noc3ccccc23)c1` [Example 186, N-[3-(1,2-benzisoxazol-3-ylamino)-5-chlorophenyl]-2-chlorocinnamamide] came in with a melting point of 133 to 135 °C.

`N=C(Nc1cc(Cl)cc(NC(=O)/C=C/c2c[nH]c3ccccc23)c1)c1ccccc1` [Example 205, (2E)-N-[3-chloro-5-[[imino(phenyl)methyl]amino]phenyl]-3-(1H-indole-3-yl)-2-propenamide] gave a melting point of 184 to 187 °C.
